Patent US4269827A, “Process and composition for reducing blood pressure” (The Massachusetts General Hospital, priority 1980, dated 1981)
pKi: −log10 of the molar value. Several values for one entry are separate records, joined by “and”; a condition that tells them apart may be missing. Identical values can stand only once. Like-named read-outs stand apart in the source and are kept apart here. No end group written: not given here.

What was measured:
[1] = molecular target: T1, renin (Homo sapiens, UniProt P00797); conditions: octapeptides with changed cleavage site; read-out: binding constants; cited from earlier work
T1 sequence (P00797 67-406): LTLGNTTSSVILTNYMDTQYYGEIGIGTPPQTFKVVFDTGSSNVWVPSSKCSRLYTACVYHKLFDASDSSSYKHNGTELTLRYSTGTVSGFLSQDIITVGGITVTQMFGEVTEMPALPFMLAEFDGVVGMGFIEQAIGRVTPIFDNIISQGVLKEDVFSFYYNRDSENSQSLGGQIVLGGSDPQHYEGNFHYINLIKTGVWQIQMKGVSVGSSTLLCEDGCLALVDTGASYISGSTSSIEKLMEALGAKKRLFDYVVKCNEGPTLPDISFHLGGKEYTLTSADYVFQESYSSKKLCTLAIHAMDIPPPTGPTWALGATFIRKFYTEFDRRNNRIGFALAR

[2] = molecular target: T2, plasma renin activity (Homo sapiens, UniProt P00797); assay: In vitro inhibition of plasma renin activity in pooled human plasma; type: biochemical; conditions: peptide in saline (1 mM) added to pooled human plasma; read-out: 50% inhibition of plasma renin activity (converted)
T2 construct: added to pooled human plasma having a plasma renin activity; from tissue; host or cells: pooled human plasma
T2 sequence (P00797 67-406): T1 sequence (P00797 67-406)
Method: The mixture is incubated for 45 min at 37° and then cooled to 0°. Complementary amounts of plasma are then added as 20 μl of a plasma dilution in 0.1 M Tris HCl (pH 7.5) containing 0.5% albumin to give the same amount of plasma protein in all tubes. Tracer and antibody (1000 μl) are then added following the radioimmunoassay procedure described by Poulsen et al, J. Clin. Endocrinol. Metab. 39, 816, (1974). Data for the standard curve is collected in the same medium kept at 4°. To determine Ki parallel series of experiments are performed in which the 10 μl Tris buffer is replaced with 10 μl of a solution containing between 2-100 μM inhibitor, respectively.
The inhibitory effect of the decapeptide in human plasma was determined as follows: human blood was drawn in ice cold tubes containing EDTA as anticoagulent and the plasma was immediately separated at 4° C. […] Substrate concentration was determined by measuring angiotensin I concentration by radioimmunoassay after incubation of plasma diluted 1:10 in the phosphate albumin buffer (pH 7.4) with 10 µl of human renin solution (0.006 GU/ml) for 1, 2, 3 and 4 hrs in order to convert renin substrate completely to angiotensin I. EDTA, BAL (2,3-dimercapto-1-propanol) and 8-hydroxyquinoline were added as angiotensinase inhibitors, Haber et al, J. Clin. Endocrinol. […]

[3] = molecular target: T1, renin; assay: In vitro inhibition of renin, inhibitor constant (Ki) with tetradecapeptide substrate, angiotensin I radioimmunoassay; type: biochemical; conditions: pH 7.4, read-out: inhibitory constant (Ki)
Method: The peptide being tested is dissolved in 0.01 N HCl and the pH adjusted to pH 7.5 to obtain high concentrations of peptide. The peptide solution is diluted further to appropriate concentrations with 0.1 M Tris HCL-albumin.
First, to determine Km renin (0.006 Goldblatt unit/ml) is incubated for 2 hrs. at 37° with incremental concentrations of Tetradecapeptide substrate varying between 3 and 108 μM in a volume of 160 μl at pH 7.5 in 0.1 M Tris HCl containing 0.5% albumin. The release of angiotensin I is determined by radioimmunoassay, Haber et al., J. Clin. Endocrinol. […] The cross-reaction of the tetradecapeptide with antibody is about 1% and less than 0.5% with the renin inhibitors both before and after exposure to renin.
The inhibitor constant is calculated as previously described, Poulsen et al., Scand. […] No. 132, 1, (1973), from a weighted least-squares fit of a Lineweaver-Burk plot. Each point is given a weight proportional to the initial velocity, Dowd et al, J. Biol. Chem. 240, 863, (1965).
The tetradecapeptide is a renin substrate releasing angiotensin I after cleavage between leucyl residues at positions 10 and 11.
Specific antibody is used to measure angiotensin I release from the decapeptide.
The rate of cleavage between renin and decapeptide will therefore be given by Dixon and Webb, Enzymes, New York, N.Y., Academic (1964), [formula] […]

Substance	pKi [1]	IC50 [2]	pKi [3]
Leu-Phe	5.40		
Leu-Tyr	4.92		
PHPFHFFVYK [I, Pro-His-Pro-Phe-His-Phe-Phe-Val-Tyr-Lys]		45 µM and 44.7 µM	5.70
Phe-Phe	6.00		
